Biological target: T1, GnRH receptor (Homo sapiens, UniProt P30968)
T1 construct: expressed in transfected cells
T1 sequence (P30968 1-328): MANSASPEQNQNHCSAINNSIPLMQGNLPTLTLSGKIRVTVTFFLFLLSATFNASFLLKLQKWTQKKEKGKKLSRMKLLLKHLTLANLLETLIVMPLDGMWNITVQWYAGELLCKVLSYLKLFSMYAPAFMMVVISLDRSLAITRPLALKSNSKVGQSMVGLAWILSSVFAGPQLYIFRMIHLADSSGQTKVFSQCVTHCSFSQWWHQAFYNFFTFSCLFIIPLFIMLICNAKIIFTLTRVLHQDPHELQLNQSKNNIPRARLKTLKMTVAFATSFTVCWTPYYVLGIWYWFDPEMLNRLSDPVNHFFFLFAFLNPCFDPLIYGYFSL
Assay: GnRH receptor membrane binding assay
Conditions: displacement of [125I]-labeled GnRH peptide from membranes of cells transfected with GnRH receptor expression vectors; Ki by Cheng-Prusoff
Method: Activity of GnRH receptor antagonists are typically calculated from the IC50 as the concentration of a compound necessary to displace 50% of the radiolabeled ligand from the GnRH receptor, and is reported as a "Ki" value calculated by the following equation: Ki =(IC50)/(1 + L / KD) [formula] where L = radioligand and KD = affinity of radioligand for receptor (Cheng and Prusoff, Biochem. Pharmacol. 22:3099, 1973). GnRH receptor antagonists of this invention have a Ki of 100 µM or less. In a preferred embodiment of this invention, the GnRH receptor antagonists have a Ki of less than 10 µM, and more preferably less than 1µM. More preferred compounds include: 1-1, 1-2-5, 12, 13-15, 19, 21, 27, 31, 32, 34, 37, 55, 58, 64, 73, 2B, 2D, 3A, 3B, 3D, 4A, 4B, 4C, 4D, 4G, 4H, 5A and 5B (see Examples below).
The GnRH analog is labeled by the chloramine-T method. To 10 µg of peptide in 20 µl of 0.5M sodium phosphate buffer, pH 7.6, is added 1 mCi of Na125I, followed by 22.5 µg chloramine-T and the mixture vortexed for 20 sec. The reaction is stopped by the addition of 60 µg sodium metabisulfite and the free iodine is removed by passing the iodinated mixture through a C-8 Sep-Pak cartridge (Millipore Corp., Milford, MA). The peptide is eluted with a small volume of 80% acetonitrile/water. The recovered labeled peptide is further purified by reverse phase HPLC on a Vydac C-18 analytical column (The Separations Group, Hesperia, CA) on a Beckman 334 gradient HPLC system using a gradient of acetonitrile in 0.1% TFA. The purified radioactive peptide is stored in 0.1 % BSA/20% acetonitrile/0.1% TFA at -800C and can be used for up to 4 weeks.
Cells stably, or transiently, transfected with GnRH receptor expression vectors are harvested, resuspended in 5% sucrose and homogenized using a polytron homogenizer (2x 15 sec). Nuclei are removed by centrifugation (3000 x g for 5 min.), and the supernatant centrifuged (20,000 x g for 30 min, 4° C) to collect the membrane fraction. The final membrane preparation is resuspended in binding buffer (10mM Hepes (pH 7.5), 150 mM NaCl, and 0.1% BSA) and stored at -70°C. Binding reactions are performed in a Millipore MultiScreen 96-well filtration plate assembly with polyethylenimine coated GF/C membranes. The reaction is initiated by adding membranes (40 ug protein in 130 ul binding buffer) to 50ul of [^125I]-labeled GnRH peptide (~100,000 cpm), and 20ul of competitor at varying concentrations. The reaction is terminated after 90 minutes by application of vacuum and washing (2X) with phosphate buffered saline. Bound radioactivity is measured using 96-well scintillation counting (Packard Topcount) or by removing the filters from the plate and direct gamma counting. Ki values are calculated from competition binding data using non-linear least squares regression using the Prism software package (GraphPad Software).

SMILES	Ki [nM]
CCOC(=O)c1cn(Cc2ccccc2F)c2cc(C(C)(C)C)c(CN(C)CCc3ccccn3)n2c1=O [Example 2B]	< 1000
CN(CCc1ccccn1)Cc1c(C(C)(C)C)cc2n(Cc3ccccc3F)cc(C(=O)NCCCc3ccccc3)c(=O)n12 [Example 2D]	< 1000
COc1cccc(-c2c(C)n(Cc3ccccc3F)c3nc(C(C)(C)C)c(CNCCc4ccccc4F)n3c2=O)c1 [Example 3A, 2-(tert-Butyl)-3-[N-(2-fluorophenyl)ethyl]aminomethyl-5-(3-methoxyphenyl)-6-methyl-7-(2-fluorobenzyl)imidazolo[1,2-a]pyrimid-4-one]	< 1000
COc1cccc(-c2c(C)n(Cc3ccccc3F)c3nc(C(C)(C)C)c(CNCCc4ccccn4)n3c2=O)c1 [Example 3B]	< 1000
COc1cccc(-c2c(C)n(Cc3ccccc3F)c3nc(C(C)(C)C)c(CNCc4ccccn4)n3c2=O)c1 [Example 3D, 3-(N-(2-Pyridylmethyl))aminomethyl-2-(tert-butyl)-6-methyl-7-(2-fluorobenzyl)-5-(3-methoxyphenyl)imidazolo[1,2-a]pyrimid-4-one]	< 1000
